Literature values as cited in patent US10092188B2, “Methods and compositions for identifying subjects at risk of developing stent thrombosis” (VisEn Medical, Inc., priority 2008, dated 2018).

**Q.** Which results are given for CY™ 5.5?
**A.** Absorbance max (absorbance maximum of commercially available fluorochrome): 675 nm; εmax (extinction coefficient of commercially available fluorochrome): 250,000 M^−1cm^−1
